Laboratory results: patent publication US4570006A, “Amidine compound, process for producing same and anti-complement agent comprising same” (Torii & Co. Ltd., priority 1981, dated 1986)

How the values were obtained:
Clr = biological target: T1, Clr (Homo sapiens, UniProt P00736); test: Anti-Cl esterase activity, Clr (AAME hydrolysis); assay type: biochemical; settings: hydrolysis of AAME; read-out: Anti-Cl activity, Clr (ID50)
T1 sequence (P00736 464-705 limits assumed): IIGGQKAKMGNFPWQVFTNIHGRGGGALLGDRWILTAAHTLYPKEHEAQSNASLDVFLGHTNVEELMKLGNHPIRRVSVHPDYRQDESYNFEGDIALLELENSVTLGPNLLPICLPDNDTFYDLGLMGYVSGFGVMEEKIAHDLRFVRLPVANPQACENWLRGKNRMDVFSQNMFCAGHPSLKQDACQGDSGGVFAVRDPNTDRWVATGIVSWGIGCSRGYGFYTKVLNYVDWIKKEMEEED
T1 sequence (P00736 18-463 limits assumed): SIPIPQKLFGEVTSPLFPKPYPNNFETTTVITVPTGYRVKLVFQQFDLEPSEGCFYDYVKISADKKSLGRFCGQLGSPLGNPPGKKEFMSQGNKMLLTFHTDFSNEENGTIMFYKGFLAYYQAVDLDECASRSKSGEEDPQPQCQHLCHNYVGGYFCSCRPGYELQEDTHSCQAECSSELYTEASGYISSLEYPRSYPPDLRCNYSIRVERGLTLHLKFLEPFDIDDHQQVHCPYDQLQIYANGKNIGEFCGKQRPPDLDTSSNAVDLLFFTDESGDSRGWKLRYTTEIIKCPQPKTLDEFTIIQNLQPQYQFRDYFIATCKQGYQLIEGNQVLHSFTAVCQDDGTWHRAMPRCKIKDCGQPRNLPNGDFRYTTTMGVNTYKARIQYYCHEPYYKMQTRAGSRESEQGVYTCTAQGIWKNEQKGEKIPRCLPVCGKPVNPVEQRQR
Method: The anti-Cl esterase ([…]) activity was determined according to the method of Okamura et al. [K. Okamura, M. Muramatsu and B. Fujii, Biochem. Biophys.

Kallikrein = test: Anti-kallikrein activity (inhibition of TAME hydrolysis); assay type: biochemical; settings: read-out: ID50, kallikrein
Method: (§1) The anti-trypsin, anti-plasmin, anti-kallikrein and anti-thrombin activities were determined according to the method of Muramatsu et al. [M. Muramatsu, T. Onishi, S. Makino, Y. Hayashi and S. Fujii, J. of Biochem., 58, 214 (1965)]. The data summarized in Table 1 are expressed in terms of molar concentration (ID50) of the test compound which inhibits 50% of the activity of each enzyme to hydrolyze TAME (tosylarginine methyl ester). The compound No. corresponds to the compound number shown in Examples.

Thrombin = Thrombin (Homo sapiens, UniProt P00734); test: biochemical; settings: TAME hydrolysis; read-out: ID50, thrombin
complement = test: Inhibition of complement mediated hemolysis; assay type: cell-based
Method: The complement mediated hemolysis is widely used as a means to determine the titration of complement. The principle of this method is based on the fact that hemolysis if caused by the activation of complement, when the latter is added to a complex (immune complex) of erythrocytes and the antibody thereof. The degree of hemolysis varies in proportion to the amount of complement added. Therefore, when a known amount of complement admixed with a Cl esterase inhibitor is used, the hemolysis must be suppressed in proportion to the inhibitory activity.
The anti-Cl esterase (Clr, Cls) activity was determined according to the method of Okamura et al. [K. Okamura, M. Muramatsu and B. Fujii, Biochem. Biophys. […] The figures in Table 2 have the following meanings: […]

Trypsin = biological target: T2, Trypsin (Bos taurus, UniProt P00760); test: Anti-trypsin activity (inhibition of TAME hydrolysis); assay type: biochemical; settings: read-out: ID50, trypsin
T2 sequence (P00760 24-246): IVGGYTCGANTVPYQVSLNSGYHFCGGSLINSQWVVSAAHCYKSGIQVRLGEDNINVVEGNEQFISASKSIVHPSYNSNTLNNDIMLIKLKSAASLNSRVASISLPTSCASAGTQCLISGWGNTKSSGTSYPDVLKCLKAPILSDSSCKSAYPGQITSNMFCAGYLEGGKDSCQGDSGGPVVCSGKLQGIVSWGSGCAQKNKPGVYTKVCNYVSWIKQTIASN
Method: as §1

Plasmin = Plasmin (Homo sapiens, UniProt P00747); test: Anti-plasmin activity (inhibition of TAME hydrolysis); assay type: biochemical; settings: read-out: ID50, plasmin
Method: as §1

Cls = biological target: T3, Cls (Homo sapiens, UniProt P09871); test: Anti-Cl esterase activity, Cls (ATEE hydrolysis); assay type: biochemical; settings: hydrolysis of ATEE; read-out: Anti-Cl activity, Cls (50% inhibition)
T3 sequence (P09871 438-688 limits assumed): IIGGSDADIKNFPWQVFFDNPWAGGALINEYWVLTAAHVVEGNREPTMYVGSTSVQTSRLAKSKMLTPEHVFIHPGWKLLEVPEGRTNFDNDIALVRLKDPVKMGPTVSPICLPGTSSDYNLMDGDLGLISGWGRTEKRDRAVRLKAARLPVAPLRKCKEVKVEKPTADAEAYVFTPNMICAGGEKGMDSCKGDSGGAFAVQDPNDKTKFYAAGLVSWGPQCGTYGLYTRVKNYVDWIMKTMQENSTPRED
T3 sequence (P09871 16-437 limits assumed): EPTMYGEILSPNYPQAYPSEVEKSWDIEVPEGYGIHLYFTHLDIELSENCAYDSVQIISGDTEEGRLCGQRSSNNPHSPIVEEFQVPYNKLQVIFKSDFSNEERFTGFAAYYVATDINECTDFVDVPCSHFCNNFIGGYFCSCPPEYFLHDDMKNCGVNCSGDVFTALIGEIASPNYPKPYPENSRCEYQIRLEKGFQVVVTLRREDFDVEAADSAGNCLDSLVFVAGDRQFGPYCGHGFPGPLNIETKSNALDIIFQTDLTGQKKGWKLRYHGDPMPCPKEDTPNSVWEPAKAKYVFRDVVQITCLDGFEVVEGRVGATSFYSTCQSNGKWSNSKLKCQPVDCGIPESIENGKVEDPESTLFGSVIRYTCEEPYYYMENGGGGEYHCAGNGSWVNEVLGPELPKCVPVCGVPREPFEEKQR
Method: The anti-Cl esterase (Clr, Cls) activity was determined according to the method of Okamura et al. [K. Okamura, M. Muramatsu and B. Fujii, Biochem. Biophys. […] The figures in Table 2 have the following meanings:
Cls: Molar concentration of the test compound which inhibits 50% of the ability of Cls to hydrolyse ATEE (acetyltyrosin ethyl ester).

Sequence of Plasmin (P00747 581-810 limits assumed, species assumed): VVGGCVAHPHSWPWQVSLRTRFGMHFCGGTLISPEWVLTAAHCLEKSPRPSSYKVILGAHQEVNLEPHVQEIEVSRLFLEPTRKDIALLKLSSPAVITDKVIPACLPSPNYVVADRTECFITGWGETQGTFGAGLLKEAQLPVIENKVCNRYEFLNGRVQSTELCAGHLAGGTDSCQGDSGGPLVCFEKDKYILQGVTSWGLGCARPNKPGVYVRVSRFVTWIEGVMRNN
Sequence of Plasmin (P00747 97-580 limits assumed, species assumed): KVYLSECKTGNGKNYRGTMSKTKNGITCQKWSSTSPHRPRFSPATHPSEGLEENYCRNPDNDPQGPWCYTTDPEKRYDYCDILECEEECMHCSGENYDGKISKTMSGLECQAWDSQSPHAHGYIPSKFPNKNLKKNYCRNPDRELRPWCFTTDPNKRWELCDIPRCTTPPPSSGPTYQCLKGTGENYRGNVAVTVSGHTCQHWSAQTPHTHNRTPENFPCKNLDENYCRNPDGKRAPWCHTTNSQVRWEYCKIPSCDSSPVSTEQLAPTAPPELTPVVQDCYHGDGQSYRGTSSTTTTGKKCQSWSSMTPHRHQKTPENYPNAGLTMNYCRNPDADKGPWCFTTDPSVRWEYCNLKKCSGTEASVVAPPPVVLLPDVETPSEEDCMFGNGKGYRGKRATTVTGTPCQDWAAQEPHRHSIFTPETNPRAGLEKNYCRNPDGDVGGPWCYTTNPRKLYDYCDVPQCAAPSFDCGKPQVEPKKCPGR

SMILES	IC50 (Clr) [µM]	IC50 (Kallikrein) [µM]	IC50 (Thrombin) [µM]	Inhibition of complement mediated hemolysis (%) (complement; compound at 1 × 10^-4)	Inhibition of complement mediated hemolysis (%) (complement; compound at 1 × 10^-5)	Inhibition of complement mediated hemolysis (%) (complement; compound at 1 × 10^-6)	Inhibition of complement mediated hemolysis (%) (complement; compound at 1 × 10^-7)	IC50 (Trypsin) [nM]	IC50 (Plasmin) [µM]	IC50 (Cls) [µM]
CC(=O)Oc1ccc(C(=N)N)cc1C(=O)c1ccccc1 [Compound 1, 4-amidino-2-benzoylphenyl acetate]	> 10	> 10	> 10	95.9	37.3	16.0	0	> 10000	> 10	
CC(=O)Oc1ccc(C(=N)N)cc1[N+](=O)[O-] [Compound 2, 4-amidino-2-nitrophenyl acetate]		> 10	> 10	97.3	30.1	3.9	2.1	> 10000	> 10	
N=C(N)c1ccc(OC(=O)C2CC2)c([N+](=O)[O-])c1 [Compound 7, 4-amidino-2-nitrophenyl cyclopropanecarboxylate]	> 10	> 10	0.5	99.0	78.2	10.2	1.7	> 10000	4	
N=C(N)c1ccc(OC(=O)C2CC2)c(C(=O)c2ccccc2)c1 [Compound 8]	> 10	3			90.5	22.0	0	2000	2	
COC(=O)c1cc(C(=N)N)ccc1OC(=O)c1ccccc1 [Compound 25, 4-amidino-2-methoxycarbonylphenyl benzoate]	4	> 10		100.0	93.1	38.6	11.6	300	0.6	0.2
COC(=O)c1cc(C(=N)N)ccc1OC(=O)c1ccc(NC(=N)N)cc1 [Compound 72]	1			100	87.8	10.8	0			0.2
CCC(=Cc1ccc(NC(=N)N)cc1)C(=O)Oc1ccc(C(=N)N)cc1C(=O)c1ccccc1 [Compound 74]	> 10			55.4	5.7	3.6	0			3
COc1cc(C(=N)N)ccc1OC(=O)c1ccc(NC(=N)N)c(C)c1 [Compound 75]	8			45.2	3.2	0	0			3
COc1cc(C(=N)N)ccc1OC(=O)c1ccc(NC(=N)N)cc1Cl [Compound 76]	> 10			34.8	4.8	0	0			> 10
N=C(N)Nc1ccc(C(=O)Oc2ccc(C(=N)N)cc2C(=O)c2ccccc2)c(Cl)c1 [Compound 77]	> 10			97.3	48.9	1.8	0			0.8
COc1cc(C(=N)N)ccc1OC(=O)c1ccc([N+](=O)[O-])c(C)c1 [Compound 80]	> 10			66.5	6.9	0	0			> 10
Cc1cc(C(=O)Oc2ccc(C(=N)N)cc2C(=O)c2ccccc2)ccc1[N+](=O)[O-] [Compound 81]	> 10			98.2	71.6	4.2	0			> 10
COc1cc(C(=N)N)ccc1OC(=O)CCCc1ccc([N+](=O)[O-])cc1 [Compound 82]	> 10			29.8	0	0	0			> 10
N#Cc1ccc(C(=O)Oc2ccc(C(=N)N)cc2C(=O)c2ccccc2)cc1 [Compound 83]	9			100	90.2	12.9				4
COC(=O)c1cc(C(=N)N)ccc1OC(=O)c1ccc(F)cc1 [Compound 84]	> 10			98.6	67.7	2.0	0			0.4
N=C(N)c1ccc(OC(=O)c2ccc(F)cc2)c([N+](=O)[O-])c1 [Compound 85]	0.6			98.6	97.9	67.1	7.0			0.5
Cc1cccc(Nc2ccccc2C(=O)Oc2ccc(C(=N)N)cc2C(=O)c2ccccc2)c1C [Compound 87]	> 10			0	0	0	0			5
